These results are taken from US10689354B2, “Aminoazole derivative” (Teijin Pharma Limited, priority 2015, dated 2020).

For one experiment, the target named is T1, human androgen receptor (Homo sapiens, UniProt P10275).
T1 construct: expressed in transfected cells; host or cells: HEK293
T1 sequence (P10275 1-920): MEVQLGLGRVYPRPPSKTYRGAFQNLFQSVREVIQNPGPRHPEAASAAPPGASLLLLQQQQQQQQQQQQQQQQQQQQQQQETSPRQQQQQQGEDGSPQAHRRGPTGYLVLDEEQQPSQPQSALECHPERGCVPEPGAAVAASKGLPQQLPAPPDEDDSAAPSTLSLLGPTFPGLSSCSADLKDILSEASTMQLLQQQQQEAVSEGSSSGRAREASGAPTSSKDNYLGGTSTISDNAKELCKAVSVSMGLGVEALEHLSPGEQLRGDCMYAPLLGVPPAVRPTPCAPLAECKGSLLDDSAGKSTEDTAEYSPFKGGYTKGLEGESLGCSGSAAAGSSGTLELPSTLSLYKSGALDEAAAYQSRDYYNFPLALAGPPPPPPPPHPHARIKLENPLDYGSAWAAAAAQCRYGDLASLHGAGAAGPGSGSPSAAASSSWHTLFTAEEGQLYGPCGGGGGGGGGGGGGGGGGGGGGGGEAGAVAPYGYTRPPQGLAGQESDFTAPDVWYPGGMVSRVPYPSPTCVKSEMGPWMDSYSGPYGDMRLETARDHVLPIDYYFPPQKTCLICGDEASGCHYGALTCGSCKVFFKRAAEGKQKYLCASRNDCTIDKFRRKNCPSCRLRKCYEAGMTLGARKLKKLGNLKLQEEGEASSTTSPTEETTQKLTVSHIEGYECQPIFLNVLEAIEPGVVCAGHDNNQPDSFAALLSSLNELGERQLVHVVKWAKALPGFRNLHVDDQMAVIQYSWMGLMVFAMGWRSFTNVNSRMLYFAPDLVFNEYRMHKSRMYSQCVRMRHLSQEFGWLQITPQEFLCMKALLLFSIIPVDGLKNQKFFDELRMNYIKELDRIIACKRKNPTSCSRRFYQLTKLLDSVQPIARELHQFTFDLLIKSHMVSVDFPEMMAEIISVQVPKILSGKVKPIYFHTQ
Briefly: Reporter assay of an androgen receptor responsive sequence (luciferase, transiently transfected HEK293 cells). The class given is cell-based. The settings on record: 24 hours incubation, relative to activity of 100 nM DHT, read-out: AR transcriptive activity (pEC50) (converted). The protocol: Reporter Assay of an Androgen Receptor Responsive Sequence
To examine the agonist activity of compounds for androgen, a reporter assay using an androgen receptor responsive sequence was conducted.
Using Lipofectamine 2000 (Invitrogen), a plasmid mixture (pGL4-ARE (200 ng/well), pcDNA3-hAR (20 ng/well), pRL-TK (Promega) (150 ng/well)) was transiently transfected into HEK293 cells. The contents of the plasmid (mixture) are as follows:
pGL4-ARE is a reporter plasmid containing firefly luciferase sequence under the control of androgen receptor responsive sequence; pcDNA3-hAR is a plasmid containing full-length sequence of human androgen receptor under the constant control of CMV promoter; pRL-TK is a plasmid containing Renilla Luciferase sequence under the control of herpes simplex virus thymidine kinase and used as an internal standard for evaluations of transfection efficiency and compound toxicity.
After the incubation of Lipofectamine 2000 and the plasmid mixture in Opti-MEM for 20 minutes, the mixture was mixed with a cell suspension prepared with Opti-MEM in the similar way, and the cell suspension was plated to a 96-well plate at 20000 cells/well. The transfection was conducted by incubating the plates under the condition of 5% CO2 at 37° C. for 3 hours. Three hours after the transfection, the culture medium was removed and a compound solution prepared by DMEM supplemented with 5% FBS and treated with charcoal was added, and the mixture was incubated under the condition of 5% CO2 at 37° C. for 24 hours. After the incubation with the compound, luciferase activities were measured with a luminometer using Dual-Glo™ Luciferase Assay System (Promega). The measurement of the luciferase activities was performed in accordance with the protocol recommended by Promega. The activity of the compound was determined by comparing to the activity of 100 nM of DHT, and quantified the logarithm value (pEC50) of reciprocal value of the effective concentration of the compound which is equal to 50% of the activity value by applying a 4 parameter goodness-of-fit calculation.

Experiment [1] concerns the target T2, androgen receptor (AR-LBD) (Rattus norvegicus, UniProt P15207).
T2 construct: 5 μL of 2×AR-LBD/Fluoromone AL Red Complex contained in the kit; purchased Invitrogen
T2 sequence (P15207 651-882 limits assumed): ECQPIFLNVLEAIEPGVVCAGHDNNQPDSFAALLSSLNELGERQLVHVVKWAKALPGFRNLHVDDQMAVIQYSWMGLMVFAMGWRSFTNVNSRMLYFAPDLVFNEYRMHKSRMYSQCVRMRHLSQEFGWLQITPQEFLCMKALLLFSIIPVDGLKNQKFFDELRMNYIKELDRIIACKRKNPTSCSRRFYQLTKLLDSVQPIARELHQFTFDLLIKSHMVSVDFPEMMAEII
Briefly: Evaluation of androgen receptor affinity (PolarScreen Androgen Receptor Competitor Assay Kit, Red; fluorescence polarization). To be noted: 22° C. for 5 hours, relative to binding rate of 1 μM DHT, read-out: AR affinity (pEC50) (converted). In short, it runs like this: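 Compounds were mixed with AR-LBD/Fluoromone AL Red complex and incubated 5 h at 22° C before fluorescence polarization was read. Binding was expressed relative to 1 μM dihydrotestosterone, and pEC50 (concentration giving 50% of that binding) came from a 4-parameter fit.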

On to `Cc1sc(N(Cc2cccc(C#N)c2)c2ccc(C#N)cc2)nc1C(=O)NS(C)(=O)=O` [Compound 9, 2-[4-cyano-N-[(3-cyanophenyl)methyl]anilino]-5-methyl-N-methylsulfonyl-thiazole-4-carboxamide], for which the values for the EC50 (on human androgen receptor; in experiment [1]) were 398 nM and 100 nM, respectively.
In the case of `Cc1sc(N(Cc2ccc(C#N)cc2)c2ccc(C#N)cc2)nc1C(=O)NS(C)(=O)=O` [Compound 10, 2-[4-cyano-N-[(4-cyanophenyl)methyl]anilino]-5-methyl-N-methylsulfonyl-thiazole-4-carboxamide], the figures for the EC50 (at human androgen receptor; in experiment [1]) were 1000 nM and 126 nM, respectively.
Turning to `CSc1ccc(CN(c2ccc(C#N)cc2)c2nc(C(=O)NS(C)(=O)=O)c(C)s2)cc1` [Compound 11, 2-[4-cyano-N-[(4-methylsulfanylphenyl)methyl]anilino]-5-methyl-N-methylsulfonyl-thiazole-4-carboxamide], the EC50 is 50.1 nM at human androgen receptor and 25.1 nM in experiment [1].
Turning to `Cc1sc(N(Cc2ccc(S(C)(=O)=O)cc2)c2ccc(C#N)cc2)nc1C(=O)NS(C)(=O)=O` [Compound 12, 2-[4-cyano-N-[(4-methylsulfonylphenyl)methyl]anilino]-5-methyl-N-methylsulfonyl-thiazole-4-carboxamide], the values for the EC50 (on human androgen receptor; in experiment [1]) were over 10000 nM and 316 nM, respectively.
The like results for `Cc1sc(N(Cc2ccccc2F)c2ccc(C#N)cc2)nc1C(=O)NS(C)(=O)=O` [Compound 13, 2-[4-cyano-N-[(2-fluorophenyl)methyl]anilino]-5-methyl-N-methylsulfonyl-thiazole-4-carboxamide] were, in that order, 316 nM and 50.1 nM.
Turning to `Cc1sc(N(Cc2cccc(F)c2)c2ccc(C#N)cc2)nc1C(=O)NS(C)(=O)=O` [Compound 14, 2-[4-cyano-N-[(3-fluorophenyl)methyl]anilino]-5-methyl-N-methylsulfonyl-thiazole-4-carboxamide], the EC50 at human androgen receptor is 50.1 nM; in experiment [1], 79.4 nM.
The like results for `Cc1sc(N(Cc2ccc(F)cc2)c2ccc(C#N)cc2)nc1C(=O)NS(C)(=O)=O` [Compound 15, 2-[4-cyano-N-[(4-fluorophenyl)methyl]anilino]-5-methyl-N-methylsulfonyl-thiazole-4-carboxamide] were, in that order, 39.8 nM and 63.1 nM.
As for `Cc1cccc(CN(c2ccc(C#N)cc2)c2nc(C(=O)NS(C)(=O)=O)c(C)s2)c1` [Compound 16, 2-[4-cyano-N-(m-tolylmethyl)anilino]-5-methyl-N-methylsulfonyl-thiazole-4-carboxamide], the EC50 was 31.6 nM at human androgen receptor and 25.1 nM in experiment [1].
`Cc1ccc(CN(c2ccc(C#N)cc2)c2nc(C(=O)NS(C)(=O)=O)c(C)s2)cc1` [Compound 17, 2-[4-cyano-N-(p-tolylmethyl)anilino]-5-methyl-N-methylsulfonyl-thiazole-4-carboxamide]: the EC50 (on human androgen receptor; in experiment [1]) was 25.1 nM each time.
As for `Cc1sc(N(Cc2cccc(Cl)c2)c2ccc(C#N)cc2)nc1C(=O)NS(C)(=O)=O` [Compound 18, 2-[N-[(3-chlorophenyl)methyl]-4-cyano-anilino]-5-methyl-N-methylsulfonyl-thiazole-4-carboxamide], the EC50 was 50.1 nM at human androgen receptor and 25.1 nM in experiment [1].
Take `Cc1sc(N(CC2CCCC2)c2ccc(C#N)cc2)nc1C(=O)NS(C)(=O)=O` [Compound 19, 2-[4-cyano-N-(cyclopentylmethyl)anilino]-5-methyl-N-methylsulfonyl-thiazole-4-carboxamide]: the EC50 at human androgen receptor is over 10000 nM; in experiment [1], 158 nM.
Consider `Cc1sc(N(CCOc2ccccc2)c2ccc(C#N)cc2)nc1C(=O)NS(C)(=O)=O` [Compound 20, 2-[4-cyano-N-(2-phenoxyethyl)anilino]-5-methyl-N-methylsulfonyl-thiazole-4-carboxamide], for which the EC50 on human androgen receptor was 1580 nM; in experiment [1] it was 63.1 nM.
